Consider 22 molecules from patent US10407414B2, “Mannose derivatives for treating bacterial infections” (priority 2015, dated 2019).

Test [1] relates to AIEC LF82 strain on T84 intestinal epithelial cells. The test is described as follows: Adhesion assay of AIEC LF82 strain on T84 intestinal epithelial cells (post-incubation test). It counts as cell-based, E. coli. Here is the method:
Residual adhesion is the ratio of level of colonization/decolonization of AIEC measured on cells, and is expressed in percentage. 100% corresponds to the control experiment (NT).
Adhesion Assays of AIEC LF82 Strain on T84 Intestinal Epithelial Cells
Compound 56 was evaluated for its ability to inhibit the adhesion of bacteria AIEC LF82 strain on T84 intestinal cells, in order to assess the therapeutic potential of the tested compounds in Crohn's Disease (CD) in particular. The following post-incubation test was used (also described in Brument et al. J. Med. Chem. 2013, 56, 5395-5406), wherein the tested compound is added after the bacteria are brought into contact with the cells. This test thus mimics a use of the compounds in curative treatment of pathologies associated with AIECs, in particular Crohn's disease.
E. coli strain LF82 isolated from an ileal biopsy of a CD patient was used as the AIEC reference strain. Bacteria were grown overnight in Luria-Bertani (LB) broth, and a bacterial suspension was prepared at a concentration of 6×10^6 bacteria/mL in DMEM/F12/SVF dec 10% medium for adhesion assays. The human intestinal cell line T84, purchased from American Type Culture Collection (ATCC, CCL-248), was maintained in an atmosphere containing 5% CO2 in the culture medium recommended by ATCC. […]

Test [2] has as its system bacterial strain LF82 binding to the glycoprotein BSA-(Mannose)3 (FimH antagonists). The test is described as follows: Bacterial Binding Assay (BBA). In kind it is cell-based, Escherichia coli. The following applies: read-out: Bacterial Binding Assay IC50 ± SEM. An outline of the steps:
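Luciferase-expressing E. coli LF82, grown overnight at 37 °C without shaking, added as 2×10^8 bacteria/mL suspension with compound in BSA/D-PBS binding buffer. Wells were coated with 0.5–2 μg/mL BSA-(Man)3 and BSA-blocked, with 40–75 min binding at room temperature. After washing, adherent bacteria were read by luciferase luminescence and IC50 derived.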

Usually IC50 stands for the concentration that gives 50% inhibition. With `Cc1cc(=O)[nH]cc1-c1cc(C#C[C@H]2O[C@H](CO)[C@@H](O)[C@H](O)[C@@H]2O)c2[nH]ncc2c1` [Compound 56, 4-methyl-5-[7-[2-[(2R,3S,4R,5S,6R)-3,4,5-trihydroxy-6-(hydroxymethyl)tetrahydropyran-2-yl]ethynyl]-1H-indazol-5-yl]-1H-pyridin-2-one], the “decolonization of adherent bacteria” value in test [1] (at 10 nM, compound added after infection of T84 cells with LF82, 3 h at 37° C.) is on record as “about 50%”. In addition, the “activity for the decolonization of the LF82 AIEC from T84 cells” value in test [1] (from a concentration of 100 nM, FIG. 1) is reported as “potent activity”. The IC50 in test [2] was 0.2 ± 0.02 nM.

For the molecule `Cc1cnccc1-c1cc(C#C[C@H]2O[C@H](CO)[C@@H](O)[C@H](O)[C@@H]2O)c2[nH]ncc2c1` [Compound 34, (2R,3S,4R,5S,6R)-2-(hydroxymethyl)-6-[2-[5-(3-methyl-4-pyridyl)-1H-indazol-7-yl]ethynyl]tetrahydropyran-3,4,5-triol], in test [2], the IC50 was 0.4 ± 0.09 nM.

Take `COc1ccc(-c2cc(C#C[C@H]3O[C@H](CO)[C@@H](O)[C@H](O)[C@@H]3O)c3[nH]ncc3c2)cc1` [Compound 30, (2R,3S,4R,5S,6R)-2-(hydroxymethyl)-6-[2-[5-(4-methoxyphenyl)-1H-indazol-7-yl]ethynyl]tetrahydropyran-3,4,5-triol]: the IC50 in test [2] amounted to 0.5 ± 0.2 nM.

For the molecule `OC[C@H]1O[C@H](C#Cc2cccc3nn[nH]c23)[C@@H](O)[C@@H](O)[C@@H]1O` [Compound 8, (2R,3S,4R,5S,6R)-2-[2-(3H-benzotriazol-4-yl)ethynyl]-6-(hydroxymethyl)tetrahydropyran-3,4,5-triol], the IC50 in test [2] came out at 180 ± 40 nM.

As for `COc1ccc(Cn2cc3cc(Br)cc(C#C[C@H]4O[C@H](CO)[C@@H](O)[C@H](O)[C@@H]4O)c3n2)cc1` [Compound 17, (2R,3S,4R,5S,6R)-2-[2-[5-bromo-2-[(4-methoxyphenyl)methyl]indazol-7-yl]ethynyl]-6-(hydroxymethyl)tetrahydropyran-3,4,5-triol], in test [2], the half-maximal inhibitory concentration (IC50) stood at 46 ± 14 nM.

On to `OCC#Cc1cc(C#C[C@H]2O[C@H](CO)[C@@H](O)[C@H](O)[C@@H]2O)c2[nH]ncc2c1` [Compound 48, (2R,3S,4R,5S,6R)-2-(hydroxymethyl)-6-[2-[5-(3-hydroxyprop-1-ynyl)-1H-indazol-7-yl]ethynyl]tetrahydropyran-3,4,5-triol], for which the IC50 in test [2] came out at 9 ± 0.7 nM.

`Cc1cc(OCc2ccccc2)ncc1-c1cc(C#C[C@H]2O[C@H](CO)[C@@H](O)[C@H](O)[C@@H]2O)c2[nH]ncc2c1` [Compound 55, (2R,3S,4R,5S,6R)-2-[2-[5-(6-benzyloxy-4-methyl-3-pyridyl)-1H-indazol-7-yl]ethynyl]-6-(hydroxymethyl)tetrahydropyran-3,4,5-triol]: the IC50 in test [2] came to 2 ± 0.05 nM.

On to `CNC(=O)c1cncc(-c2cc(C#C[C@H]3O[C@H](CO)[C@@H](O)[C@H](O)[C@@H]3O)c3[nH]ncc3c2)c1` [Compound 42, N-methyl-5-[7-[2-[(2R,3S,4R,5S,6R)-3,4,5-trihydroxy-6-(hydroxymethyl)tetrahydropyran-2-yl]ethynyl]-1H-indazol-5-yl]pyridine-3-carboxamide], for which, in test [2], the IC50 turned out to be 0.6 ± 0.2 nM.

As for `O=S1(=O)CCN(CC#Cc2cc(C#C[C@H]3O[C@H](CO)[C@@H](O)[C@H](O)[C@@H]3O)c3[nH]ncc3c2)CC1` [Compound 49, (2R,3S,4R,5S,6R)-2-[2-[5-[3-(1,1-dioxo-1,4-thiazinan-4-yl)prop-1-ynyl]-1H-indazol-7-yl]ethynyl]-6-(hydroxymethyl)tetrahydropyran-3,4,5-triol], in test [2], the half-inhibitory concentration (IC50) was 26 ± 0.5 nM.

On to `CNC(=O)c1cc(C#C[C@H]2O[C@H](CO)[C@@H](O)[C@H](O)[C@@H]2O)c2[nH]ncc2c1` [Compound 62, N-methyl-7-[2-[(2R,3S,4R,5S,6R)-3,4,5-trihydroxy-6-(hydroxymethyl)tetrahydropyran-2-yl]ethynyl]-1H-indazole-5-carboxamide], for which the IC50 in test [2] amounted to 34 ± 20 nM.

As to `OC[C@H]1O[C@H](C#Cc2cc(-c3ccc4cc[nH]c4c3)cc3cn[nH]c23)[C@@H](O)[C@@H](O)[C@@H]1O` [Compound 40, (2R,3S,4R,5S,6R)-2-(hydroxymethyl)-6-[2-[5-(1H-indol-6-yl)-1H-indazol-7-yl]ethynyl]tetrahydropyran-3,4,5-triol], the half-maximal inhibitory concentration (IC50) in test [2] came out at 1 ± 0.3 nM.

Take `Cc1ccc(C#N)cc1-c1cc(C#C[C@H]2O[C@H](CO)[C@@H](O)[C@H](O)[C@@H]2O)c2[nH]ncc2c1` [Compound 89, 4-methyl-3-[7-[2-[(2R,3S,4R,5S,6R)-3,4,5-trihydroxy-6-(hydroxymethyl)tetrahydropyran-2-yl]ethynyl]-1H-indazol-5-yl]benzonitrile]: in test [2], the IC50 is 0.5 ± 0.04 nM.

For the molecule `Cc1ccccc1-c1cc(C#C[C@H]2O[C@H](CO)[C@@H](O)[C@H](O)[C@@H]2O)c2[nH]ncc2c1` [Compound 26], the IC50 in test [2] was 0.7 ± 0.3 nM.

For the molecule `CCCCc1cc(C#C[C@H]2O[C@H](CO)[C@@H](O)[C@H](O)[C@@H]2O)c2[nH]nnc2c1` [Compound 19, (2R,3S,4R,5S,6R)-2-[2-(6-butyl-3H-benzotriazol-4-yl)ethynyl]-6-(hydroxymethyl)tetrahydropyran-3,4,5-triol], in test [2], the concentration for half-maximal inhibition (IC50) is 2 ± 0.6 nM.

Regarding `CCOC(=O)C1CC=C(c2cc(C#C[C@H]3O[C@H](CO)[C@@H](O)[C@H](O)[C@@H]3O)c3[nH]ncc3c2)CC1` (stereo partly drawn) [Compound 71, ethyl 4-[7-[2-[(2R,3S,4R,5S,6R)-3,4,5-trihydroxy-6-(hydroxymethyl)tetrahydropyran-2-yl]ethynyl]-1H-indazol-5-yl]cyclohex-3-ene-1-carboxylate], the IC50 in test [2] was determined as 0.6 ± 0.2 nM.

On to `CC(C)(C)OC(=O)n1ccc(-c2cc(C#C[C@H]3O[C@H](CO)[C@@H](O)[C@H](O)[C@@H]3O)c3[nH]ncc3c2)c1` [Compound 72, tert-butyl 3-[7-[2-[(2R,3S,4R,5S,6R)-3,4,5-trihydroxy-6-(hydroxymethyl)tetrahydropyran-2-yl]ethynyl]-1H-indazol-5-yl]pyrrole-1-carboxylate], for which the concentration for half-maximal inhibition (IC50) in test [2] was 7 ± 4 nM.

Turning to `O=C(c1cc(C#C[C@H]2O[C@H](CO)[C@@H](O)[C@H](O)[C@@H]2O)c2[nH]ncc2c1)N1CCOCC1` [Compound 61, morpholino-[7-[2-[(2R,3S,4R,5S,6R)-3,4,5-trihydroxy-6-(hydroxymethyl)tetrahydropyran-2-yl]ethynyl]-1H-indazol-5-yl]methanone], the IC50 in test [2] came out at 0.6 ± 0.1 nM.

Regarding `Cn1ncc2cccc(C#C[C@H]3O[C@H](CO)[C@@H](O)[C@H](O)[C@@H]3O)c21` [Compound 13, (2R,3S,4R,5S,6R)-2-(hydroxymethyl)-6-[2-(1-methylindazol-7-yl)ethynyl]tetrahydropyran-3,4,5-triol], the half-maximal inhibitory concentration (IC50) in test [2] stood at 480 ± 150 nM.

Take `COC(=O)c1cc(C#C[C@H]2O[C@H](CO)[C@@H](O)[C@H](O)[C@@H]2O)c2[nH]ncc2c1` [Compound 57, Methyl 7-[2-[(2R,3S,4R,5S,6R)-3,4,5-trihydroxy-6-(hydroxymethyl)tetrahydropyran-2-yl]ethynyl]-1H-indazole-5-carboxylate]: in test [2], the concentration for half-maximal inhibition (IC50) came out at 2 ± 0.6 nM.

On to `CN(CC#Cc1cc(C#C[C@H]2O[C@H](CO)[C@@H](O)[C@H](O)[C@@H]2O)c2[nH]ncc2c1)Cc1ccccc1` [Compound 51, (2R,3S,4R,5S,6R)-2-[2-[5-[3-[benzyl(methyl)amino]prop-1-ynyl]-1H-indazol-7-yl]ethynyl]-6-(hydroxymethyl)tetrahydropyran-3,4,5-triol], for which the IC50 in test [2] came out at 3 ± 0.4 nM.

With `OC[C@H]1O[C@H](C#Cc2cc(C#CC3CC3)cc3cn[nH]c23)[C@@H](O)[C@@H](O)[C@@H]1O` [Compound 43, (2R,3S,4R,5S,6R)-2-[2-[5-(2-cyclopropylethynyl)-1H-indazol-7-yl]ethynyl]-6-(hydroxymethyl)tetrahydropyran-3,4,5-triol], the concentration for half-maximal inhibition (IC50) in test [2] amounted to 2 ± 1 nM.

With `O=c1[nH]c2cc(Cl)cc(C#C[C@H]3O[C@H](CO)[C@@H](O)[C@H](O)[C@@H]3O)c2[nH]1` [Compound 12, 6-chloro-4-[2-[(2R,3S,4R,5S,6R)-3,4,5-trihydroxy-6-(hydroxymethyl)tetrahydropyran-2-yl]ethynyl]-1,3-dihydrobenzimidazol-2-one], in test [2], the IC50 was 16 ± 6 nM.
